Values quoted from earlier work in patent US20110082867A1, “SYSTEM, METHOD, AND COMPUTER PROGRAM PRODUCT FOR ANALYZING DRUG INTERACTIONS” (priority 2009, published 2011).

Tests used:
CYP 2E1 = CYP 2E1 (Homo sapiens, UniProt P05181); conditions: Gene CYP 2E1; involvement strength and type
CYP 2D6 = CYP 2D6 (Homo sapiens, UniProt P10635); conditions: Gene CYP 2D6; involvement strength and type
CYP 1A2 = target: T1, CYP 1A2 (Homo sapiens, UniProt P05177); conditions: Gene CYP 1A2; involvement strength and type
T1 sequence (P05177 1-516): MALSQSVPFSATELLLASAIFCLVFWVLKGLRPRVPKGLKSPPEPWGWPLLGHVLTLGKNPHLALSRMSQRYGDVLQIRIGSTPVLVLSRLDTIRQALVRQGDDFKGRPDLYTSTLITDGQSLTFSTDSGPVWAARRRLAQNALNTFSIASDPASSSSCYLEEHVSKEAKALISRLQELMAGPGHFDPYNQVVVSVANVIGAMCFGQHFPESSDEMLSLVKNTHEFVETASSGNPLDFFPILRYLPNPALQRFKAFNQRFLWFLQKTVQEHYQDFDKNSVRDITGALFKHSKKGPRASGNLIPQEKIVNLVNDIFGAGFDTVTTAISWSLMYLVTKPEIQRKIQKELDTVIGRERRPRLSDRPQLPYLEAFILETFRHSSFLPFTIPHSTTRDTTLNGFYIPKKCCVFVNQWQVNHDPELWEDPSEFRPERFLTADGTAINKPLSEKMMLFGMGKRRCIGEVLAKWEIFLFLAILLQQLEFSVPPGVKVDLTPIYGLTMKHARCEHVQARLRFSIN

CYP 2A6 = target: T2, CYP 2A6 (Homo sapiens, UniProt P11509); conditions: Gene CYP 2A6; involvement strength and type
T2 sequence (P11509 1-494): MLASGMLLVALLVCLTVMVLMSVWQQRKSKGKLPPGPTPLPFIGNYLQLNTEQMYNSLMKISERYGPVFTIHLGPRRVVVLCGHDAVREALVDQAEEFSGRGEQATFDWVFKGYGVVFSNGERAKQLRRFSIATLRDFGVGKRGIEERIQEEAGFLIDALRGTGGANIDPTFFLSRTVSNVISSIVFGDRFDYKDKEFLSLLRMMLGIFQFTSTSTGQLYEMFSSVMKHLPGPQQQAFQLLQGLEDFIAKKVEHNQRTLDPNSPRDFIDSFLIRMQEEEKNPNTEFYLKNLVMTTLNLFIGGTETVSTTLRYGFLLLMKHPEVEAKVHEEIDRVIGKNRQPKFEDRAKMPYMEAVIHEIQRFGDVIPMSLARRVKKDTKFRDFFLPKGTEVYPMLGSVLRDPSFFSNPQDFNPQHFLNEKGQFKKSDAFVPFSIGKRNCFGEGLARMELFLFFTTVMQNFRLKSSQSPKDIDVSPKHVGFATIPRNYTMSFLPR

CYP 3A4 = CYP 3A4 (Homo sapiens, UniProt P08684); conditions: Gene CYP 3A4; involvement strength and type
CYP 2C9 = CYP 2C9 (Homo sapiens, UniProt P11712); conditions: Gene CYP 2C9; involvement strength and type
CYP 2C9, sequence (P11712 whole entry): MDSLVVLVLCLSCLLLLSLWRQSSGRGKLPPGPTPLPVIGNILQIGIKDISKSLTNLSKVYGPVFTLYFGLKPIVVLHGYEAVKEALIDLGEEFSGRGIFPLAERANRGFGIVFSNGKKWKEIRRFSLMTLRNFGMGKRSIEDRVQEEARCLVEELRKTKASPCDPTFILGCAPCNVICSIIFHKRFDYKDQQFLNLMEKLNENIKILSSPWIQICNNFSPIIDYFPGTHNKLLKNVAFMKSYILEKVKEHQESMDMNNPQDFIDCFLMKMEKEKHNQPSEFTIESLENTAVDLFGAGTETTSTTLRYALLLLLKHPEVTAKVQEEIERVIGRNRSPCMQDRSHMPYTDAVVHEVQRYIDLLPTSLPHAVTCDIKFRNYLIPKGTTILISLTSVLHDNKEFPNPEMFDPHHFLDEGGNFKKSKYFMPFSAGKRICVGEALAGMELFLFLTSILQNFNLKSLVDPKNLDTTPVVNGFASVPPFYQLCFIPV

CYP 2D6, sequence (P10635 whole entry): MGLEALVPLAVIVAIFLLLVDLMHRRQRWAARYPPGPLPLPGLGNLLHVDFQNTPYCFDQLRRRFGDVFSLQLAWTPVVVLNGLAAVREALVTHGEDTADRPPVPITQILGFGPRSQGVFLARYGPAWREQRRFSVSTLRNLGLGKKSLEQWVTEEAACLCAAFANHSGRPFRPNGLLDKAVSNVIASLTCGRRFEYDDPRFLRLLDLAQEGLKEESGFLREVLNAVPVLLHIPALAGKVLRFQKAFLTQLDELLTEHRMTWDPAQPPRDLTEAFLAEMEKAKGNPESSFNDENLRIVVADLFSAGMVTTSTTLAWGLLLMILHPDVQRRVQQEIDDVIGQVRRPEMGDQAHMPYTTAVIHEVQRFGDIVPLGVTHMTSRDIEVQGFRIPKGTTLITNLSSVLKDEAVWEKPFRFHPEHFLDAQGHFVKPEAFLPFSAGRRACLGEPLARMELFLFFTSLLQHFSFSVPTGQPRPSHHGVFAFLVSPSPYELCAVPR
CYP 2E1, sequence (P05181 whole entry): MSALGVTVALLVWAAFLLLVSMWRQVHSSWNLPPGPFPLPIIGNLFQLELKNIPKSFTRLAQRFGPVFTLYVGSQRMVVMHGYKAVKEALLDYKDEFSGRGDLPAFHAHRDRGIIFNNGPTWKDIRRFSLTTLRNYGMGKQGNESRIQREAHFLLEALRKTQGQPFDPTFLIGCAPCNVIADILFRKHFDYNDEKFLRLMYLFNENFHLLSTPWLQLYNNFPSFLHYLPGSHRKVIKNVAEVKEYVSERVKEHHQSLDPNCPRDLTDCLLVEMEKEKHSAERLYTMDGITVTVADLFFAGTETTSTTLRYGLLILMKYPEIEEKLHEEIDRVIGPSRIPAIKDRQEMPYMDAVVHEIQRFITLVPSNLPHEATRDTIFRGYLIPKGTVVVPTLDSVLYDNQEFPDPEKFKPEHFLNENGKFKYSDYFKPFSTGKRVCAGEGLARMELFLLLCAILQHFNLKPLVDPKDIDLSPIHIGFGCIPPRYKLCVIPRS
CYP 3A4, sequence (P08684 whole entry): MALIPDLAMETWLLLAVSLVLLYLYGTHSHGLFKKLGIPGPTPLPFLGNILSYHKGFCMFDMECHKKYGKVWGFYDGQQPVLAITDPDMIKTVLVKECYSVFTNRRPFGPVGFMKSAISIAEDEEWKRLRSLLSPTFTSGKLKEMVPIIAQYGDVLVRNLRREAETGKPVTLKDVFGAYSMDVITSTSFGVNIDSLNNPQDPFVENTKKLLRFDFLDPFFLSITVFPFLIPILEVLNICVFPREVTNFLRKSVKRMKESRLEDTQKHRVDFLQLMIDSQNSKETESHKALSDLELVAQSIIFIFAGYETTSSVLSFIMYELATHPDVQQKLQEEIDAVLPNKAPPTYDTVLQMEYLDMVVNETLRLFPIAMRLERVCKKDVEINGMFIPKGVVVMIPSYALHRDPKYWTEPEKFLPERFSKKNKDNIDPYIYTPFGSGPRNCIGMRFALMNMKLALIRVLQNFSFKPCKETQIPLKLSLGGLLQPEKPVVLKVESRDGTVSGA

SMILES | Drug Interaction (CYP 2E1) | Drug Interaction (CYP 2D6) | Drug Interaction (CYP 1A2) | Drug Interaction (CYP 2A6) | Drug Interaction (CYP 3A4) | Drug Interaction (CYP 2C9)
CC(=O)Nc1ccc(O)cc1 [Acetaminophen] | Major Substrate | Minor Substrate | Minor Substrate | Minor Substrate | Minor Substrate | –
COc1ccc2c3c1O[C@H]1[C@@H](O)C=C[C@H]4[C@@H](C2)N(C)CC[C@@]341 [Codeine] | – | Major Substrate | – | – | – | –
CC(=O)CC(c1ccccc1)c1c(O)c2ccccc2oc1=O (stereo not shown) [Warfarin] | – | – | – | – | – | Major Substrate
